Laboratory results: patent US20050014782A1, “Novel n-(heterobicycloalkanes)-substituted indoles-or heteroderivatives thereof” (Boehringer Ingelheim International GmbH, priority 2003, published 2005)
Where a name gives a salt, the structure may show the parent alone.

Key:
[1] = target: T1, human chemokine receptor CCR-3 (Homo sapiens, UniProt P51677); test: CCR-3 receptor binding assay, 125Jodine-eotaxin-1 Scintillation Proximity Assay (SPA)
T1 construct: expressed in transfected cells; host or cells: K562 cells (clone hCCR-3-C1), membranes
T1 sequence (P51677 1-355): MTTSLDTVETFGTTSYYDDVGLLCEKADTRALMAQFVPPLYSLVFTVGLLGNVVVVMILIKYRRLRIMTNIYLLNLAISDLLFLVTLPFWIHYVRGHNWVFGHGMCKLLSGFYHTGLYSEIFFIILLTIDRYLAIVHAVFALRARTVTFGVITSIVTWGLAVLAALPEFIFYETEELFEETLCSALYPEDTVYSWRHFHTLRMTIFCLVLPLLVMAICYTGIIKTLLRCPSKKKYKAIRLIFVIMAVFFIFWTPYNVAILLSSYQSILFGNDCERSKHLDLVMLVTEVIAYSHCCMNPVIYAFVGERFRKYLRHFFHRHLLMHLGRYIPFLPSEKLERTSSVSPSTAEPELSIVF
Procedure: The CCR-3 receptor binding test is based on a K562 cell line (leukemia myelogenic blast cells) transfected with the human chemokine receptor CCR-3 (hCCR-3-C1). The cell membranes were prepared by disrupting the hCCR-3 transfected K562 cells by […] and centrifugation at 40000 g, 4° C. for 1 h. The membranes were re-suspended in the SPA incubation buffer without bovine serum albumin for storage in aliquots at −80° C.
The CCR-3 receptor binding assay with the radioligand ^125Jodine-eotaxin-1 was performed in a Scintillation Proximity Assay (SPA) design. Cell membranes of hCCR-3 C1 cells were diluted in suitable concentrations (0.5-5 ug protein/well) in 96 well microtiter plates (1450-401, Wallac).
The test incubation mixture comprising 60 μl of the membrane suspension, 80 μl of the Wheat Germ Agglutinin coated PVT beads (organic scintillator, Amersham Pharmacia biotech) in a concentration of 0.4 mg and 40 μl of radiolabelled ^125J rhEotaxin (Amersham, IM290) were incubated with 20 μl of the test compound (dissolved in DMSO dilutions) for 2 hours. The SPA incubation buffer contained 25 mM HEPES, 25 mM MgCl2 6×H2O, 1 mM CaCl2 2×H2O and 0.1% bovine serum albumin. Included were controls for specific binding (no displacer added) and non-specific binding by adding unlabelled rhEotaxin (R&D Systems) or a test compound. Bound radioactivity was determined by scintillation counter (Micro Beta “Trilux”, Wallac). Determination of affinity of test compounds (dissociation constant Ki) was calculated by iterative fitting of experimental data using the law of mass action based program “easy sys” (Schittkowski, Num Math 68, 129-142 (1994)).

Row | Structure (SMILES) | melting point [°C] | Ki [1] [nM]
1 | CCc1nc2cc(F)ccc2n1C1CC2CCC(C1)N2CCCSc1ccc(F)cc1 (centres unmarked) (as salt: HCl) [Example 10, 2-Ethyl-5-fluoro-1-{8-[3-(4-fluoro-phenylsulfanyl)-propyl]-8-aza-bicyclo[3.2.1]oct-3-yl}-1H-benzoimidazole] | 127 to 128 | –
2 | Cc1nc2cc(F)ccc2n1C1CC2CCC(C1)N2CCCSc1ccc(F)cc1 (centres unmarked) (as salt: HCl) [Example 11, 5-Fluoro-1-{8-[3-(4-fluoro-phenylsulfanyl)-propyl]-8-aza-bicyclo[3.2.1]oct-3-yl}-2-methyl-1H-benzoimidazole] | 240 to 241 | –
3 | Fc1ccc(SCCCN2C3CCC2CC(n2c(C4CC4)nc4cc(F)ccc42)C3)cc1 (centres unmarked) [Example 9, 2-Cyclopropyl-5-fluoro-1-{8-[3-(4-fluoro-phenylsulfanyl)-propyl]-8-aza-bicyclo[3.2.1]oct-3-yl}1H-benzoimidazole] | – | 10
4 | CCc1nc2cc(F)ccc2n1C1CC2CCC(C1)N2CCCSc1ccc(F)cc1 (centres unmarked) [Example 10, 2-Ethyl-5-fluoro-1-{8-[3-(4-fluoro-phenylsulfanyl)-propyl]-8-aza-bicyclo[3.2.1]oct-3-yl}-1H-benzoimidazole] | – | 6.5
5 | Cc1nc2cc(F)ccc2n1C1CC2CCC(C1)N2CCCSc1ccc(F)cc1 (centres unmarked) [Example 11, 5-Fluoro-1-{8-[3-(4-fluoro-phenylsulfanyl)-propyl]-8-aza-bicyclo[3.2.1]oct-3-yl}-2-methyl-1H-benzoimidazole] | – | 14
